Source: patent US20210062263A1, “A CLINICAL […]” (priority 2016, published 2021)

How the values were obtained:
dorsal skin wound [1] = test: Histopathological measurements of skin wounds; format: in vivo, mice
Protocol: (§1) Implants were prepared by cutting medical grade Silastic (polydimethylsiloxane) tubing (1.5 mm inner diameter, 2.3 mm outer diameter, Aunet Pty Ltd, WA, Australia) to the desired length (1 cm long) and sealing one end with Multi-Purpose Sealant (Dow Corning RTV Sealant). After 24 hours each tube was packed with either crystalline testosterone (Sigma #T-1500) or left empty (vehicle implant). The open end was then sealed and implants were allowed to dry for at least 24 hours prior to surgical implantation. The implant size was considered to be the length of tubing containing testosterone. Prior to subcutaneous insertion, implants were sterilized in absolute ethanol for 10 minutes which also removed any androgen adhering to its external surface. Each testosterone or vehicle implant was inserted subcutaneously via a 5-mm nape incision in intact and castrated male mice three weeks before the wound healing experiments and the incision site was closed with 5/0 sutures.
(§2) Under anesthesia, the dorsal flanks of each 9 weeks old mouse (n=6/group) were carefully shaved and cleansed with 70% v/v ethanol. To create wounds, full-thickness, parasagittal linear incisions (1 cm long) were made through the skin and underlying the panniculus carnosus muscle on each flank and each wound was closed using two 5/0 silk sutures placed 3 mm from each end of the wound. Post operatively, all animals received analgesia to minimize pain, were allowed to recover on a heated pad and then housed in groups of four animals per cage. Incisions were examined and assessed on days 3, 5, 7 and post-wounding.
(§3) Following exsanguination, anesthetized animals were killed by cervical dislocation. Full-thickness specimens of the skin wound, consisting of the entire wound scar surrounded by a border of about 3-mm, were excized and bisected. Half of each sample was frozen at −80° C. and the other half was fixed in 4% v/v paraformaldehyde (Sigma-Aldrich, NSW, Australia) and processed for histology. Unwounded skin was obtained from the dorsum of the trunk near the tail of each animal to determine protein levels.
Transverse histological sections (5 μm) of skin from the center of each wound were stained with hematoxylin and eosin (H&E) [Harris' Hematoxylin, 1% v/v Eosin, Amber Scientific, Midvale, Wash., Australia] and analyzed by light microscopy. All histological analyses were performed blind without knowledge of the identity of each specimen. Histological sections were scanned for assessment using Aperio ScanScope AT Turbo Scanner (Aperio, CA, USA) and the electronic slides (eSlides) were visualized and analyzed using Aperio ImageScope.
Wound width was calculated by measuring the distance between the unwounded dermis margins at the epidermis-dermis junction (Gilliver et al. (2008) endocrinology 149(11):5747-5757). When the width was <0.2 mm, the wound was considered closed. Reepithelialization was assessed using the following scoring method: 0, absent; 1, present, covering <50% of the wound; 2, present, covering >50% and <100% of the wound; 3, present, covering 100% with irregular thickness; 4, present, covering 100% with regular thickness (Steed et al. (1997) 77(3):575-586). To determine epidermal hyperplasia, the mean distance between the stratum granulosum and the epidermal-dermal junction of each wound site was calculated (10 measurements per section, using a 10× objective). Unwounded skin was used as control.
Sections from day 7 and day 14 wounds were also stained with Masson's trichrome to highlight connective tissue. The area of granulation tissue was measured by defining the area located between the basal surface of the epidermis and the panniculus carnosus below. Collagen orientation was assessed using the following scoring method: 1, basket-weave fibers; 2, basket-weave >parallel fibers; 3, parallel fibers >basket-weave fibers; 4, parallel fibers (Ashcroft and Mills (2002) J Clin Invest 110(5):615-624).

follistatin = test: Cutaneous follistatin levels (RIA) after wounding; format: in vivo, mice
Description: as §2
as §3, with “levels. […]” for “levels.”
Serum and skin follistatin levels were measured by RIA using human recombinant follistatin 288 as standard and as tracer following labeling with I^125 (O'Conner et al. (1999) Hum Reprod 14(3):827-832). […]

dorsal skin wound [2] = test: Macroscopic evaluation of dorsal skin wounds; format: in vivo, mice
Protocol: as §1
as §2, with “Post operatively, all animals received analgesia to minimize pain, were allowed to recover on a heated pad and then housed in groups of four animals per cage.” left out
Digital images of each dorsal skin wound were obtained with a standardized focal distance, aperture and exposure time using a Nikon D5000 camera (Nikon, Tokyo, Japan) immediately after the initial incision and at 3, 5, 7 and 14 days post-wounding. Wound areas were measured within the wound margins and the pixel areas were calculated using Adobe Photoshop CS5 (version 12.0, Adobe Systems Inc). The area of erythema was measured in all groups at 3 days and 5 days post-wounding and the area of the wound was measured in all groups at all time-points.

activin A [3] = test: Serum activin A levels (ELISA) in wounded male mice; format: in vivo
Protocol: as §1, §2
Blood samples were collected between 10:00 and 10:30 am by cardiac puncture at different time points (0d, 3d, 5d, 7d or 14d) according to the experimental protocol. The samples were allowed to coagulate for 30 minutes then centrifuged at 10,000 g for 10 minutes to collect serum which was stored at −20° C. until assayed.
Activin A levels were measured in serum and skin using a specific ELISA and human recombinant activin A as a standard, according to manufacturer's instructions (Oxford Bioinnovations, Cherwell, Oxfordshire, UK) [Knight et al. (1996) J Endocrinol 148(2):267-279]. The assay sensitivity for serum activin A was 11 pg/ml, with an intra-assay variation of 4.6-7.5% and an inter-assay variation of 10.6%.

activin A [4] = test: Cutaneous activin A levels (ELISA) after wounding; format: in vivo, mice; settings: testosterone replacement, day 3 post-wounding
Description: as §2
as §3, with “levels. […]” for “levels.”
Activin A levels were measured in serum and skin using a specific ELISA and human recombinant activin A as a standard, according to manufacturer's instructions (Oxford Bioinnovations, Cherwell, Oxfordshire, UK) [Knight et al. (1996) J Endocrinol 148(2):267-279]. […]

C[C@]12CC[C@H]3[C@@H](CCC4=CC(=O)CC[C@@]43C)[C@@H]1CC[C@@H]2O [testosterone]
collagen fiber orientation (dorsal skin wound [1]; castrated males treated with testosterone, day 14 post-wounding): predominant parallel orientation | wound width (dorsal skin wound [1]; castrated males, testosterone replacement vs castrated group, days 3 and 5 post-wounding): significantly increased wound widths | re-epithelialization (dorsal skin wound [1]; castrated+T group, day 5 post-wounding): re-epithelialization was complete | epidermal thickness (dorsal skin wound [1]; castrated+T group, days 3, 5 and 7 post-wounding): increased thickness of the epidermis | wound width (dorsal skin wound [1]; intact males treated with testosterone vs intact group, day 3 post-wounding): decreased wound width | wound closure (summary) (dorsal skin wound [1]; male mice): delayed wound closure | follistatin levels in skin (follistatin; castrated testosterone replacement group vs vehicle group, day 3 post-wounding): significantly higher | follistatin levels in skin (follistatin; intact males given testosterone vs intact males that received vehicle): significantly lower | wound area (dorsal skin wound [2]; castrated animals treated with testosterone vs vehicle, days 3 and 5 post-wounding): increased wound area | scabs on wound surface (dorsal skin wound [2]; castrated males, testosterone replaced): scabs were observed at both days 3 and 5 | area of erythema (dorsal skin wound [2]; castrated+T males, day 3 post-wounding): 0.42±0.03 cm2 | Serum Activin A (activin A [3]; Castrated + T males, 0 d): 80.2 ± 7.8 pg/mL | Serum Activin A (activin A [3]; Castrated + T males, 3 d): 65.4 ± 5.8 pg/mL | Serum Activin A (activin A [3]; Castrated + T males, 5 d): 54.9 ± 7.7 pg/mL | Serum Activin A (activin A [3]; Castrated + T males, 7 d): 83.8 ± 7.3 pg/mL | Serum Activin A (activin A [3]; Castrated + T males, 14 d): 93 ± 7.7 pg/mL | Serum Activin A (activin A [3]; Intact + T males, 0 d): 65.4 ± 6.8 pg/mL | Serum Activin A (activin A [3]; Intact + T males, 3 d): 85.2 ± 5 pg/mL | Serum Activin A (activin A [3]; Intact + T males, 5 d): 74.9 ± 6.9 pg/mL | Serum Activin A (activin A [3]; Intact + T males, 7 d): 92.1 ± 3.8 pg/mL | Serum Activin A (activin A [3]; Intact + T males, 14 d): 74.6 ± 3.5 pg/mL | serum activin levels (in words) (activin A [3]; castrated males, testosterone replacement vs castrated+Vh, days 3 and 5 post wounding): decreased serum activin levels | increase in cutaneous levels of activin A (activin A [4]; castrated males): 17 fold | cutaneous levels of activin A relative to castrated males (activin A [4]): twice
